Source: the supplement of paper PMC10307832

Assays:
Assay in all cases: relative viability (nuclei count vs DMSO), 5 days (fraction); higher = more cells survive
Imatinib + Phenformin = compound: Cc1ccc(NC(=O)c2ccc(CN3CCN(C)CC3)cc2)cc1Nc1nccc(-c2cccnc2)n1 [Imatinib] + N=C(N)NC(=N)NCCc1ccccc1 [Phenformin] (partner 250 µM)
Method in brief: (§1)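 Relative viability is defined as nuclei in treated wells over nuclei in vehicle wells. Duplicate plates were run and medians reported. Lung cancer cell lines in 1536-well plates were dosed by pin tool one day after seeding, with one drug or with a fixed anchor-drug dose plus five library-drug doses (not always all listed) in √10 steps, and nuclei were counted after 5 days.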

Imatinib + Dasatinib = compound: Cc1ccc(NC(=O)c2ccc(CN3CCN(C)CC3)cc2)cc1Nc1nccc(-c2cccnc2)n1 [Imatinib] + Cc1nc(Nc2ncc(C(=O)Nc3c(C)cccc3Cl)s2)cc(N2CCN(CCO)CC2)n1 [Dasatinib] (partner 0.075 µM)
Method in brief: as §1

Imatinib + Pemetrexed = compound: Cc1ccc(NC(=O)c2ccc(CN3CCN(C)CC3)cc2)cc1Nc1nccc(-c2cccnc2)n1 [Imatinib] + Nc1nc2[nH]cc(CCc3ccc(C(=O)N[C@@H](CCC(=O)O)C(=O)O)cc3)c2c(=O)[nH]1 [Pemetrexed] (partner 0.2 µM)
Method in brief: as §1

Imatinib + Foretinib = compound: Cc1ccc(NC(=O)c2ccc(CN3CCN(C)CC3)cc2)cc1Nc1nccc(-c2cccnc2)n1 [Imatinib] + COc1cc2c(Oc3ccc(NC(=O)C4(C(=O)Nc5ccc(F)cc5)CC4)cc3F)ccnc2cc1OCCCN1CCOCC1 [Foretinib] (partner 0.25 µM)
Method in brief: as §1

| Cell Line | relative viability (Imatinib + Phenformin; first compound 0.02 µM) | relative viability (Imatinib + Phenformin; first compound 0.2 µM) | relative viability (Imatinib + Phenformin; first compound 0.6325 µM) | relative viability (Imatinib + Phenformin; first compound 2 µM) | relative viability (Imatinib + Dasatinib; first compound 0.02 µM) | relative viability (Imatinib + Dasatinib; first compound 0.2 µM) | relative viability (Imatinib + Dasatinib; first compound 0.6325 µM) | relative viability (Imatinib + Dasatinib; first compound 2 µM) | relative viability (Imatinib + Pemetrexed; first compound 0.02 µM) | relative viability (Imatinib + Pemetrexed; first compound 0.2 µM) | relative viability (Imatinib + Pemetrexed; first compound 0.6325 µM) | relative viability (Imatinib + Pemetrexed; first compound 2 µM) | relative viability (Imatinib + Foretinib; first compound 0.02 µM) | relative viability (Imatinib + Foretinib; first compound 0.2 µM) | relative viability (Imatinib + Foretinib; first compound 0.6325 µM) | relative viability (Imatinib + Foretinib; first compound 2 µM) | relative viability (Imatinib + Foretinib; first compound 0.06325 µM) | relative viability (Imatinib + Phenformin; first compound 0.06325 µM) | relative viability (Imatinib + Dasatinib; first compound 0.06325 µM) | relative viability (Imatinib + Pemetrexed; first compound 0.06325 µM) |
| --- | --- | --- | --- | --- | --- | --- | --- | --- | --- | --- | --- | --- | --- | --- | --- | --- | --- | --- | --- | --- |
| HOP-62 | 0.77 | 0.858 | 0.613 | 0.66 | 0.726 | 0.642 | 0.576 | 0.54 | 0.302 | 0.356 | 0.29 | 0.317 | 1.27 | 1.23 | 0.994 | 1.12 |  |  |  |  |
| IA-LM |  |  |  |  |  |  |  |  |  |  |  |  | 1.34 | 1.06 | 1.4 | 1.17 | 1.2 |  |  |  |
| LC-2-ad | 0.626 |  | 0.603 | 0.557 | 0.603 | 0.461 | 0.484 | 0.588 | 0.265 | 0.298 | 0.251 | 0.27 | 0.926 | 0.886 | 0.819 | 0.982 | 0.676 | 0.603 | 0.545 |  |
| LCLC-97TM1 | 0.409 | 0.458 | 0.498 | 0.437 | 0.926 | 0.875 | 0.81 | 0.86 | 0.183 | 0.197 | 0.165 | 0.184 | 0.934 | 1.03 | 0.927 | 0.905 |  |  |  |  |
| LCLC-103H | 0.342 | 0.347 | 0.316 | 0.255 | 0.637 | 0.471 | 0.471 | 0.388 | 0.458 | 0.472 | 0.464 | 0.504 |  | 0.565 | 0.679 | 0.869 | 0.744 | 0.325 | 0.436 | 0.445 |
| LK-2 | 0.447 | 0.378 | 0.439 | 0.46 | 0.258 | 0.282 | 0.276 | 0.15 | 0.272 | 0.296 |  | 0.272 | 1.18 | 1.65 | 0.83 | 1.32 | 0.908 | 0.413 | 0.266 | 0.29 |
| LOU-NH91 | 0.679 | 0.675 | 0.679 | 0.665 | 0.569 | 0.607 | 0.567 | 0.56 | 0.361 | 0.381 | 0.405 | 0.395 | 0.943 | 0.891 | 0.929 | 0.879 | 0.923 | 0.693 | 0.581 | 0.385 |
| LU99A | 0.887 | 0.77 | 0.899 | 0.785 | 0.761 | 0.555 | 0.736 | 0.372 | 0.161 | 0.157 | 0.232 | 0.313 | 0.772 | 0.894 | 0.857 | 0.772 | 0.879 | 0.923 | 0.637 | 0.206 |
| LXF-289 | 0.531 | 0.552 | 0.51 | 0.502 | 0.216 | 0.217 | 0.19 | 0.195 | 0.91 | 0.88 | 0.893 | 0.923 | 1.01 | 1.14 | 0.848 | 0.95 | 0.914 | 0.491 | 0.259 |  |
| NCI-H23 | 0.863 | 0.768 | 0.764 | 0.731 | 1.06 | 0.694 | 0.78 | 0.972 | 0.692 |  |  | 0.571 | 1.13 | 1.2 | 1.07 | 1.13 | 1.15 | 0.84 | 0.688 | 0.69 |
| NCI-H322M | 0.909 | 0.819 | 0.679 | 0.795 | 0.245 | 0.248 | 0.237 | 0.253 | 0.677 | 0.63 | 0.563 | 0.63 | 1.09 | 1.01 | 0.883 | 0.935 | 1.03 | 0.839 | 0.259 | 0.613 |
| NCI-H358 | 0.317 | 0.418 | 0.292 | 0.335 | 0.151 | 0.153 | 0.163 | 0.135 | 0.167 | 0.189 | 0.171 | 0.178 | 0.685 | 0.726 | 0.619 | 0.648 | 0.519 | 0.349 | 0.13 | 0.169 |
| NCI-H441 | 0.755 | 1.02 | 0.958 | 0.879 | 0.713 | 0.693 | 0.745 | 0.546 | 0.278 | 0.27 | 0.265 | 0.24 | 0.72 | 1.11 | 1.16 | 0.916 | 1.1 | 0.747 | 0.619 | 0.262 |
| NCI-H460 | 0.621 | 0.557 | 0.443 | 0.478 | 0.678 | 0.649 | 0.456 | 0.493 | 0.0572 | 0.0551 | 0.0623 | 0.0654 | 1.12 | 1.15 | 0.909 | 1.07 | 0.918 | 0.555 | 0.675 | 0.0576 |
| NCI-H520 | 0.695 | 0.545 | 0.568 | 0.497 | 0.158 | 0.206 | 0.186 | 0.169 | 0.556 | 0.709 | 0.716 | 0.733 | 0.616 | 0.64 | 0.757 | 0.903 | 1.2 | 0.823 | 0.213 | 0.768 |
| NCI-H596 | 0.73 | 0.816 | 0.693 | 0.834 | 0.597 | 0.831 | 0.499 | 0.641 | 0.497 | 0.509 | 0.466 | 0.487 | 0.948 | 0.931 | 0.855 | 0.832 |  | 0.663 | 0.582 | 0.507 |
| NCI-H727 | 0.653 | 0.876 | 0.522 | 0.522 | 0.433 | 0.331 | 0.234 | 0.463 |  |  |  |  | 0.969 | 0.891 | 0.712 | 0.834 | 0.898 |  |  |  |
| NCI-H1299 |  |  |  |  |  |  |  |  |  |  |  |  | 1.11 | 1.16 | 1.09 |  | 1.18 |  |  |  |
| NCI-H1648 |  |  |  |  |  |  |  |  | 0.722 | 0.721 | 0.543 | 0.673 |  |  |  |  |  |  |  | 0.642 |
| NCI-H1703 |  |  |  |  |  |  |  |  |  |  |  |  | 0.329 | 0.372 | 0.402 | 0.347 | 0.397 |  |  |  |
| NCI-H1792 | 0.262 | 0.233 | 0.235 | 0.35 | 0.847 | 0.769 | 0.596 | 0.666 | 1.06 | 0.848 |  | 0.748 |  |  |  |  |  | 0.237 | 0.429 | 0.931 |
